This is an account of results in article PMC4645461 (Peptides, 2015).

“Also recorded” adds a separate entry of the source.

For assay [1], the target named is T1, rat glucagon receptor (Rattus norvegicus, UniProt P30082).
T1 construct: host or cells: CHO-K1
The assay can be described thus: cAMP accumulation, CHO-K1 cells over-expressing the rat glucagon receptor. The format is cell-based. Conditions: rat glucagon receptor vs rat GLP-1 receptor. As to the method:
(§1) For cAMP studies, cells were seeded at a density of 150000 cells/ml in a 48 well plate (Nunc, VWR International Inc., Chicago, USA) and incubated for 24 h. Cells were serum starved for 1 h and then incubated for 30 mins at room temperature with a range of peptide concentrations diluted in serum free DMEM (Sigma–Aldrich, Dorset, UK) in the presence of 1 mM IBMX (3-isobutyl-1-methylxanthine, Sigma–Aldrich). […] EC50’s were calculated using Prism v5 (GraphPad Software Inc., San Diego, CA, USA). Concentrations were applied in duplicate or triplicate per experiment and each experiment repeated a minimum of 3 times.
(§2) All food and bodyweight data are presented as mean ± SEM. […] Differences in 0–7 days cumulative food intake and bodyweight data were analysed using one way ANOVA and post hoc tests with Dunnett’s or Bonferroni corrections for multiple comparisons (Prism v5, GraphPad Software Inc. San Diego, CA, USA). cAMP EC50’s were calculated using a sigmoidal dose response curve and non-linear regression (Prism v5). […] In all cases P < 0.05 was considered statistically significant.

For assay [2] the following is noted: cited from earlier work.
For assay [3] the following is noted: rodents and humans; ref [7],[19],[34],[36],[37]; cited from earlier work.
The test system of assay [4] is human glucagon receptor. To be noted: compared to native peptides; ref [22],[23],[32]; cited from earlier work.
Assay [5] relates to human GLP-1 receptor. To be noted: compared to native peptides; ref [22],[23],[32]; cited from earlier work.
On the set-up of assay [6]: method as in earlier work. To be noted: native oxyntomodulin and longer lasting dual analogues; rodents ref [6],[9],[10],[23],[26],[31]; humans ref [36],[37]; cited from earlier work. The source says: Additionally, methods of peptide administration differ: some studies infused peptides while others administer ...
Assay [7] has as its target T2, rat GLP-1 receptor (Rattus norvegicus, UniProt P32301).
T2 construct: host or cells: CHL (Chinese hamster lung)
T2 sequence (P32301 22-463): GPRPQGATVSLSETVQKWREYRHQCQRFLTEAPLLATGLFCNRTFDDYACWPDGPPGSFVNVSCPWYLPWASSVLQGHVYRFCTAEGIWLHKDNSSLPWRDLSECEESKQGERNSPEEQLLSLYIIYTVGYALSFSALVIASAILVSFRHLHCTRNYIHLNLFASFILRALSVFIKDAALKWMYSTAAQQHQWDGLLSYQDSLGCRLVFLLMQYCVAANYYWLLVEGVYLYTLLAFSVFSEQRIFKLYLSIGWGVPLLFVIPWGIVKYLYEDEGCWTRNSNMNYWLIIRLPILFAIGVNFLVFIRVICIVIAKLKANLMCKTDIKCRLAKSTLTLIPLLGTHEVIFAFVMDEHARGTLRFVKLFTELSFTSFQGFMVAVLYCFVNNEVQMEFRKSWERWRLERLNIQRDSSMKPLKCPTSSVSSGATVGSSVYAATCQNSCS
The assay can be described thus: cAMP accumulation, CHL cells over-expressing the rat GLP-1 receptor. It counts as cell-based. Conditions: analogue average EC50/average GLP-1 EC50; below 1 enhanced efficacy, above 1 decreased efficacy vs native peptide. The protocol:
as §1, §2

T1 sequence (P30082 27-485): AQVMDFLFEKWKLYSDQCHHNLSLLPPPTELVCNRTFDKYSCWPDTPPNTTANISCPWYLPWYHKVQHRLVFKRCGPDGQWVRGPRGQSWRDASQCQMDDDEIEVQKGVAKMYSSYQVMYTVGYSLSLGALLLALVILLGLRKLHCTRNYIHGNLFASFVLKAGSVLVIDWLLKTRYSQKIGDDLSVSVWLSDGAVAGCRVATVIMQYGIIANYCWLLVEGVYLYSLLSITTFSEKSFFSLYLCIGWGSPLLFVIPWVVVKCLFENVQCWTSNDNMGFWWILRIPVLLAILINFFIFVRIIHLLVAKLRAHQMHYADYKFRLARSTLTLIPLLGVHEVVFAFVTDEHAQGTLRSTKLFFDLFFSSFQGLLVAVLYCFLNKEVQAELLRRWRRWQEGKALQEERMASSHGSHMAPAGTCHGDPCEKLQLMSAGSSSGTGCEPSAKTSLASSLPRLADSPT

For oxyntomodulin [OXM], the “preference between rat glucagon and GLP-1 receptors” value in assay [1] is on record as “greater efficacy at the glucagon receptor than the GLP1 receptor; also recorded: favoured glucagon receptor activity”. Also, in assay [2] (peripheral administration, rodents ref [1],[5],[6],[25], humans ref [4],[36],[37]), the “weight loss” value is “causes weight loss”. For the same substance, the “energy expenditure” value in assay [3] is reported as “increase energy expenditure”. In addition, the “activation of human glucagon receptor” value in assay [4] was “reduced efficacy compared to the native peptides”. The “activation of human GLP-1 receptor” value in assay [5] is “reduced efficacy compared to the native peptides”. For the same substance, the “food intake after repeated peripheral administration” value in assay [6] is on record as “reduction in food intake”.

For Exendin-4, the “weight loss in standard chow fed animals” value in assay [2] (ref [33],[38]) is “weight loss”.

For the substance GLP-1(7-36NH2), in assay [7], the “EC50 ratio to native peptide, Rat GLP-1r” value was 1.0 arbitrary units.
